HELM strings list units from the 5' end as sugar, base in round brackets, then linkage (d deoxyribose, r ribose, m 2'-O-methyl, p phosphodiester). Strings are as the collection lists them, not checked against the first reports. ss, as = sense and antisense strand; [lna] = locked nucleic acid (LNA); [una] = unlocked nucleic acid; [fl2r] = 2'-fluoro
Note: test system not given here.

For this data set the following is noted: siRNA.
Substance “RNA1{r(A)p.r(A)p.r(C)p.r(C)p.r(C)p.r(A)p.r(C)p.r(C)p.r(A)p.r(C)p.r(A)p.r(G)p.r(C)p.m(U)p.r(A)p.r(G)p.r(A)p.r(A)p.r(C)p.m(U)p.m(U)}|RNA2{r(A)p.r(A)p.r(G)p.r(U)p.r(U)p.r(C)p.m(U)p.r(A)p.r(G)p.r(C)p.r(U)p.r(G)p.r(U)p.r(G)p.r(G)p.r(U)p.r(G)p.r(G)p.r(G)p.r(U)p.r(U)}$$$RNA1{StrandType:ss}|RNA2{StrandType:as}$” had a target mRNA knockdown of 81%.
As for “RNA1{r(G)p.r(U)p.r(A)p.r(U)p.r(G)p.r(A)p.r(C)p.r(C)p.r(G)p.r(A)p.r(C)p.r(U)p.r(A)p.r(C)p.r(G)p.r(C)p.r(G)p.r(U)p.r(A)p.r(T)p.r(T)}|RNA2{r(U)p.r(U)p.r(C)p.r(A)p.r(G)p.r(U)p.r(G)p.[una](U)p.r(G)p.r(A)p.r(U)p.r(G)p.r(A)p.r(C)p.r(A)p.r(C)p.r(U)p.r(U)p.r(G)p.r(T)p.r(T)}$$$RNA1{StrandType:ss}|RNA2{StrandType:as}$”, the figure is 90%; as for “RNA1{m(U)p.r(U)p.m(A)p.r(A)p.m(G)p.r(G)p.m(A)p.r(G)p.m(A)p.r(A)p.m(G)p.r(C)p.m(U)p.r(G)p.m(A)p.r(C)p.m(G)p.r(G)p.m(C)p.r(T)p.r(T)}|RNA2{m(G)p.r(C)p.r(C)p.m(G)p.r(U)p.r(C)p.r(A)p.m(G)p.r(C)p.r(U)p.r(U)p.r(C)p.r(U)p.r(C)p.r(C)p.r(U)p.r(U)p.r(A)p.r(A)p.r(T)p.r(T)}$$$RNA1{StrandType:ss}|RNA2{StrandType:as}$”, 45%.
As for “RNA1{r(A)p.r(A)p.r(A)p.r(C)p.r(C)p.r(C)p.r(C)p.m(U)p.r(A)p.r(G)p.r(A)p.r(G)p.r(G)p.r(G)p.r(C)p.r(A)p.r(A)p.r(G)p.r(U)p.r(T)p.r(T)}|RNA2{r(A)p.r(C)p.r(U)p.r(U)p.r(G)p.r(C)p.r(C)p.r(C)p.r(U)p.r(C)p.m(U)p.r(A)p.r(G)p.r(G)p.r(G)p.r(G)p.r(U)p.r(U)p.r(U)p.r(T)p.r(T)}$$$RNA1{StrandType:ss}|RNA2{StrandType:as}$”, the figure is 75%; as for “RNA1{[lna](G)p.r(G)p.r(C)p.r(C)p.r(U)p.r(U)p.r(U)p.r(C)p.r(A)p.r(C)p.r(U)p.r(A)p.r(C)p.r(U)p.r(C)p.r(C)p.r(U)p.r(A)p.r(C)p.[lna](G)p.[lna](A)}|RNA2{r(G)p.r(U)p.r(A)p.r(G)p.r(G)p.r(A)p.r(G)p.r(U)p.r(A)p.r(G)p.r(U)p.r(G)p.r(A)p.r(A)p.r(A)p.r(G)p.r(G)p.r(C)p.r(C)p.r(A)p.r(G)}$$$RNA1{StrandType:ss}|RNA2{StrandType:as}$”, 83%; as for “RNA1{r(A)p.r(G)p.r(C)p.r(G)p.r(A)p.r(U)p.r(C)p.r(C)p.r(C)p.r(G)p.r(A)p.r(A)p.r(C)p.r(A)p.r(A)p.r(G)p.r(U)p.r(A)p.r(U)p.r(T)p.r(T)}|RNA2{r(A)p.m(U)p.r(A)p.r(C)p.r(U)p.r(U)p.r(G)p.r(U)p.r(U)p.r(C)p.r(G)p.r(G)p.r(G)p.r(A)p.r(U)p.r(C)p.r(G)p.r(C)p.r(U)p.r(T)p.r(T)}$$$RNA1{StrandType:ss}|RNA2{StrandType:as}$”, 85%.
“RNA1{r(A)p.r(U)p.r(C)p.r(G)p.r(C)p.[fl2r](U)p.r(G)p.r(C)p.r(U)p.r(C)p.r(C)p.r(U)p.r(C)p.r(C)p.r(U)p.r(C)p.r(C)p.r(U)p.r(C)p.r(T)p.r(T)}|RNA2{r(G)p.r(A)p.r(G)p.r(G)p.r(A)p.r(G)p.r(G)p.r(A)p.r(G)p.r(G)p.r(A)p.r(G)p.[fl2r](C)p.r(A)p.r(G)p.r(C)p.r(G)p.r(A)p.r(U)p.r(T)p.r(T)}$$$RNA1{StrandType:ss}|RNA2{StrandType:as}$” yielded a target mRNA knockdown of 71%.
Then “RNA1{m(C)p.r(C)p.m(G)p.r(A)p.m(A)p.r(G)p.m(A)p.r(C)p.m(G)p.r(A)p.m(A)p.r(G)p.m(C)p.r(U)p.m(A)p.r(U)p.m(G)p.r(A)p.m(A)p.r(T)p.r(T)}|RNA2{r(U)p.r(U)p.r(C)p.r(A)p.r(U)p.r(A)p.m(G)p.r(C)p.r(U)p.r(U)p.r(C)p.m(G)p.r(U)p.r(C)p.r(U)p.r(U)p.r(C)p.m(G)p.m(G)p.r(T)p.r(T)}$$$RNA1{StrandType:ss}|RNA2{StrandType:as}$”, with 51%; and “RNA1{r(A)p.r(A)p.r(A)p.r(C)p.r(C)p.r(C)p.r(C)p.[fl2r](U)p.r(A)p.r(G)p.r(A)p.r(G)p.r(G)p.r(G)p.[fl2r](C)p.r(A)p.r(A)p.r(G)p.r(U)p.r(T)p.r(T)}|RNA2{r(A)p.r(C)p.r(U)p.r(U)p.r(G)p.r(C)p.r(C)p.r(C)p.r(U)p.r(C)p.r(U)p.r(A)p.r(G)p.r(G)p.r(G)p.r(G)p.r(U)p.r(U)p.r(U)p.r(T)p.r(T)}$$$RNA1{StrandType:ss}|RNA2{StrandType:as}$”, with 83%.
As for “RNA1{r(A)p.r(U)p.r(C)p.r(U)p.r(G)p.r(A)p.r(A)p.r(G)p.r(A)p.r(A)p.r(G)p.r(G)p.r(A)p.r(G)p.r(A)p.r(A)p.r(A)p.r(A)p.r(A)p.d(T)p.d(T)}|RNA2{r(U)p.r(U)p.r(U)p.r(U)p.r(U)p.r(C)p.r(U)p.r(C)p.r(C)p.r(U)p.r(U)p.r(C)p.r(U)p.r(U)p.r(C)p.r(A)p.r(G)p.r(A)p.r(U)p.d(T)p.d(T)}$$$RNA1{StrandType:ss}|RNA2{StrandType:as}$”, the figure is 95%; as for “RNA1{r(A)p.r(G)p.r(U)p.m(U)p.r(A)p.r(A)p.r(C)p.r(C)p.r(C)p.r(G)p.r(G)p.r(G)p.r(A)p.r(C)p.r(U)p.r(U)p.r(G)p.r(G)p.r(A)p.r(T)p.r(T)}|RNA2{r(U)p.r(C)p.m(C)p.r(A)p.r(A)p.r(G)p.r(U)p.r(C)p.r(C)p.r(C)p.r(G)p.r(G)p.r(G)p.r(U)p.r(U)p.r(A)p.r(A)p.r(C)p.r(U)p.r(T)p.r(T)}$$$RNA1{StrandType:ss}|RNA2{StrandType:as}$”, 91%.
